Experimental findings from patent publication US20250296971A1, “GASTRIC INHIBITORY PEPTIDE RECEPTOR LIGANDS” (priority 2021, published 2025) are described below.

The structures appear in SMILES notation. *1 amine or outer side, *2 acyl side, *3 side chain or, on linkers, in order; H or OH if unused. Where a SMILES comes first, the peptide text is derived from it. Bridges are numbered along the chain shown (N, C = ends). [ ]: non-standard residue; d: D form. The star is where a group is joined. NH(1-deoxy-D-glucityl) = OC[C@@H](O)[C@@H](O)[C@H](O)[C@@H](O)CN*; DOTA = O=C(O)CN1CCN(CC(=O)O)CCN(CC(=O)*)CCN(CC(=O)O)CC1; Trp(5-Cl) = N[C@@H](Cc1c[nH]c2ccc(Cl)cc12)C(=O)O; Pyridine(2,6-diCH2) = c1cc(C[*:1])nc(C[*:2])c1; Pro(4R-NH2) = N[C@H]1CN[C@H](C(=O)O)C1; Glutaryl = O=C(CCCC(=O)[*:2])[*:1]; X1 = O=C(CN1CCC(N[*:1])CC1)[*:2]; Api = NC1(C(=O)O)CCNCC1 A value given as a limit tells only on which side of the number the result lay.

What all share (settings): 111In-labeled compound, 6 h, 37° C., read-out: pKD Category (converted)
One assay concerns the target T1, Dog GIPR (Canis lupus familiaris, UniProt A0A8I3MPG1).
T1 construct: host or cells: CHO-VGT
T1 sequence (A0A8I3MPG1 24-449): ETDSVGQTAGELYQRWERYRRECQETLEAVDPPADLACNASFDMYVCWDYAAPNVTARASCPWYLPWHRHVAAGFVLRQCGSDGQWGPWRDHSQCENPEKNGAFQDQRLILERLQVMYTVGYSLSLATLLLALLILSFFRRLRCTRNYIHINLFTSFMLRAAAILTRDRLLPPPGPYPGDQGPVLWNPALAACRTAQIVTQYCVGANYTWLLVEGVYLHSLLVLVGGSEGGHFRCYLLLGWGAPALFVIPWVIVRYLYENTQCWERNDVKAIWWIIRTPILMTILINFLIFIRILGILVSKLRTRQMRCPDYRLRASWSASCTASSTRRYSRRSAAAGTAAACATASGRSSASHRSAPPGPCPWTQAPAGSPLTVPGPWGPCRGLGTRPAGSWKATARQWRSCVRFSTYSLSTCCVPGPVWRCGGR
Nature of the assay: Radioligand binding assay, dog GIPR. How it is done:
(§1) In order to assess the affinity of ^111In-labeled compounds to the GIPR receptor of different species, a radioligand binding assay was established.
(§2) CHO-K1 cells (GenScript Biotech, #M00486) were stably transfected with the human GIPR. CHO-K1-hGIPR cells were cultured in Ham's F12 medium (Sigma-Aldrich, #N4888) including 10% fetal calf serum (FCS), 2 mM L-glutamine, 100 U/mL penicillin, 100 µg/mL streptomycin, 200 µg/mL Zeocin and 100 µg/mL HygromycinB. To evaluate the species cross-reactivity, CHO-VGT cells were transfected with the human, dog, rat and mouse GIPR (Inscreenex GmbH), which were cultured in DMEM/Ham's F12 Medium 1:1 (Biochrom, #F485) including 5% fetal calf serum (FCS), 2 mM L-glutamine, 100 U/mL penicillin and 100 μg/mL streptomycin. Cells were detached with Accutase (Biolegend, #BLD-423201) and counted using a particle counter (CASY Model TT; Schärfe Systems). Cell concentrations were adjusted to 3×10^5 mL^−1, and 1.000 μL of the suspension per well were dispensed into flat-clear-bottom 24 well plates.
(§3) Approximately 24 hours after re-seeding, the medium was aspirated and the cells were washed once with 700 μL assay medium (Ham's medium with 20 mM HEPES). […]
(§4) At the end of incubation time, cells were washed and subsequently harvested in 300 μL RIPA buffer containing PIC. Radioactivity of the cell lysate of each well was counted using a gamma counter (Perkin Elmer). […]

The next assay concerns the target T2, Mouse GIPR (Mus musculus, UniProt Q0P543).
T2 construct: host or cells: CHO-VGT
T2 sequence (Q0P543 19-460): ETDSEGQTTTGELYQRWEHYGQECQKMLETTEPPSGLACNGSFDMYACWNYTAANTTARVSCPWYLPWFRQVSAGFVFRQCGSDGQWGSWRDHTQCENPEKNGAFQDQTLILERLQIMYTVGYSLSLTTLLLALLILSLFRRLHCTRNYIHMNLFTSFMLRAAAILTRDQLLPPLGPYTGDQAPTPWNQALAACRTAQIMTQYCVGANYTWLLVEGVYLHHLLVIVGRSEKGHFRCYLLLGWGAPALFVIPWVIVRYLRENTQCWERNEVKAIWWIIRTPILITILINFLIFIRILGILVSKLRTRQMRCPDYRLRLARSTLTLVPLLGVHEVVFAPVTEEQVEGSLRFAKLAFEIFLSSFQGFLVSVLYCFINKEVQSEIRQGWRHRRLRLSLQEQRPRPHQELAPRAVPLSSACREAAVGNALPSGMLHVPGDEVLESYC
Kind of assay: Radioligand binding assay, mouse GIPR. The procedure:
as §1, §2, §3, §4

The target of the next assay is T3, Rat GIPR (Rattus norvegicus, UniProt P43219).
T3 construct: host or cells: CHO-VGT
T3 sequence (P43219 19-455): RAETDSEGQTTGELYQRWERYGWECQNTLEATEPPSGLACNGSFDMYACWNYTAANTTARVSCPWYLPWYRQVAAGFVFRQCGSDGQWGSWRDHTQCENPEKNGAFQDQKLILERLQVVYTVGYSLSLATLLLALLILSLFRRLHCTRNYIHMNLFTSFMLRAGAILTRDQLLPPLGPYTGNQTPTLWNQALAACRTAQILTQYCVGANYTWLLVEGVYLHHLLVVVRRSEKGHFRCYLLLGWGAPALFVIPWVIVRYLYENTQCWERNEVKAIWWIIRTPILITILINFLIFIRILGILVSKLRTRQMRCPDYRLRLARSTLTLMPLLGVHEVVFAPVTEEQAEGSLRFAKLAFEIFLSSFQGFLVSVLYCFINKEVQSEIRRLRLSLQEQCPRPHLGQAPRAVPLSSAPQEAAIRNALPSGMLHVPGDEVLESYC
Kind of assay: Radioligand binding assay, rat GIPR. How it is done: as §1, §2, §3, §4

On to `CC[C@H](C)[C@@H]1NC(=O)[C@H](CC(C)C)NC(=O)C2(CCN(C(=O)CN3CCN(CC(=O)O)CCN(CC(=O)O)CCN(CC(=O)O)CC3)CC2)NC(=O)[C@@H](NC(=O)[C@@H](CC(C)C)NC(=O)[C@H](CCC(=O)O)NC(=O)[C@@H]2C[C@@H](N)CN2C(=O)[C@H](Cc2c[nH]c3ccc(Cl)cc23)NC(=O)[C@H](Cc2c[nH]c3ccccc23)NC(=O)[C@H](CC(=O)O)NC(=O)CCCC(=O)NC[C@H](O)[C@@H](O)[C@H](O)[C@H](O)CO)CSCc2cccc(n2)CSC[C@@H](C(=O)NC2CCN(CC(=O)N[C@H](CCC(=O)NC[C@H](O)[C@@H](O)[C@H](O)[C@H](O)CO)C(N)=O)CC2)NC1=O` [GIP-001, AGLU-Glutar-Asp-Trp-5Clw-Tap-Glu-leu-[Cys(2Lut)-Apc(DOTA)-Leu-Ile-Cys]-APAc-glu(AGLU)-NH2] ({NH(1-deoxy-D-glucityl)-Glutaryl}-DW[Trp(5-Cl)][Pro(4R-NH2)]E[dL]C[Api](DOTA)LIC[X1][dE](NH(1-deoxy-D-glucityl))-NH2; linker 7-11 via Pyridine(2,6-diCH2)), for which the Kd on Dog GIPR is less than 0.316 nM; at Mouse GIPR, greater than 1 nM; on Rat GIPR it was 0.316 to 1 nM.
